Test results published in US12576253B2, “Drug delivery device with intravesical tolerability” (priority 2009, dated 2026).

Details: two six-day rabbits (4 mg device), spinal cord puncture at L7 just prior to euthanasia

- lidocaine in cerebrospinal fluid: not detected
SMILES: CCN(CC)CC(=O)Nc1c(C)cccc1C [lidocaine]
